In patent US20080267932A1, “Lactobacillus Rhamnosus with Body-Fat Reducing Activity and the Foods Containing Them” (priority 2004, published 2008):

Legend:
[1] = test system: Lactobacillus rhamnosus Strain PL60; assay: Antibiotic resistance (diameter of growth inhibition); format: cell-based; conditions: antibiotic against Lactobacillus rhamnosus Strain PL60
[2] = test system: CLA production from LA; conditions: reported strains, for comparison; cited from earlier work
[3] = test system: overweight people; conditions: cited from earlier work

Compound	Diameter(mm) of growth inhibition [1]	other results
CO[C@H]1/C=C/O[C@@]2(C)Oc3c(C)c(O)c4c(O)c(c(/C=N/N5CCN(C)CC5)c(O)c4c3C2=O)NC(=O)/C(C)=C\C=C\[C@H](C)[C@H](O)[C@@H](C)[C@@H](O)[C@@H](C)[C@H](OC(C)=O)[C@@H]1C [Rifampin]	24 mm	–
Lactobacillus reuteri	–	yield of t10c12 CLA [2]: 30 ppm
[H]/N=C(/N)N[C@H]1[C@H](O)[C@@H](O)[C@H](O[C@@H]2O[C@@H](C)[C@](O)(C=O)[C@H]2O[C@@H]2O[C@@H](CO)[C@H](O)[C@@H](O)[C@@H]2NC)[C@@H](N/C(N)=N\[H])[C@@H]1O [Streptomycin]	11 mm	–
CC(=O)OCC1=C(C(=O)O)N2C(=O)[C@@H](NC(=O)Cc3cccs3)[C@H]2SC1 [Cephalothin]	20 mm	–
conjugated linoleic acid [CLA]	–	weight loss ([3]; 180 overweight people, administered for one year): 4-10%; side effects ([3]; in vivo): without side effects
CCN1CCN(C(=O)N[C@@H](C(=O)N[C@@H]2C(=O)N3[C@@H]2SC(C)(C)[C@@H]3C(=O)O)c2ccccc2)C(=O)C1=O [Piperacilin]	30 mm	–
Trimethpprime/sulfamethoxasole	6 mm	–
CC1(C)S[C@@H]2[C@H](NC(=O)C(C(=O)O)c3ccccc3)C(=O)N2[C@H]1C(=O)O (stereo partly shown) [Carbenicillin]	25 mm	–
CN(C)[C@@H]1C(O)=C(C(N)=O)C(=O)[C@@]2(O)C(O)=C3C(=O)c4c(O)cccc4[C@@](C)(O)[C@H]3C[C@@H]12 [Tetracycline]	29 mm	–
CCC[C@@H]1C[C@@H](C(=O)N[C@@H]([C@H]2O[C@H](SC)[C@H](O)[C@@H](O)[C@H]2O)[C@H](C)Cl)N(C)C1 [Clindamycin]	26 mm	–
CN[C@H](CC(C)C)C(=O)N[C@H]1C(=O)N[C@@H](CC(N)=O)C(=O)N[C@H]2C(=O)N[C@H]3C(=O)N[C@H](C(=O)N[C@H](C(=O)O)c4cc(O)cc(O)c4-c4cc3ccc4O)[C@H](O)c3ccc(c(Cl)c3)Oc3cc2cc(c3O[C@@H]2O[C@H](CO)[C@@H](O)[C@H](O)[C@H]2O[C@H]2C[C@](C)(N)[C@H](O)[C@H](C)O2)Oc2ccc(cc2Cl)[C@H]1O [Vancomycin]	6 mm	–
Penicillin	25 mm	–
O=C(N[C@H](CO)[C@H](O)c1ccc([N+](=O)[O-])cc1)C(Cl)Cl [Chloramphenicol]	24 mm	–
CC[C@H]1OC(=O)[C@H](C)[C@@H](O[C@H]2C[C@@](C)(OC)[C@@H](O)[C@H](C)O2)[C@H](C)[C@@H](O[C@@H]2O[C@H](C)C[C@H](N(C)C)[C@H]2O)[C@](C)(O)C[C@@H](C)C(=O)[C@H](C)[C@@H](O)[C@]1(C)O [Erythromycin]	28 mm	–
CC1(C)S[C@@H]2[C@H](NC(=O)[C@H](N)c3ccccc3)C(=O)N2[C@H]1C(=O)O [Ampicillin]	21 mm	–
CCN1CCN(C(=O)N[C@@H](C(=O)N[C@@H]2C(=O)N3C(C(=O)O)=C(CSc4nnnn4C)CS[C@H]23)c2ccc(O)cc2)C(=O)C1=O [Cefoperazone]	22 mm	–
Cc1onc(-c2ccccc2)c1C(=O)N[C@@H]1C(=O)N2[C@@H]1SC(C)(C)[C@@H]2C(=O)O [Oxacillin]	8 mm	–
Gentamicin	10 mm	–
